From patent publication US20160039904A1, “STABILIZED SINGLE HUMAN CD4 DOMAINS AND FUSION PROTEINS” (priority 2013, published 2016)
Several values for one entry are separate records, joined by “and”; a condition that tells them apart may be missing. Identical values can stand only once. Like-named read-outs stand apart in the source and are kept apart here.

How the values were obtained:
[1] = test system: HIV-1 CH91; assay type: cell-based; conditions: Table 7; CH91, clade BC, R5
[2] = test system: HIV-1 CH114; assay type: cell-based; conditions: Table 7; CH114, clade BC, R5
[3] = test system: HIV-1 CNE23; assay type: cell-based; conditions: Table 7; CNE23, clade BC, R5
[4] = test system: HIV-1 CNE30; assay type: cell-based; conditions: Table 7; CNE30, clade BC, R5
[5] = test system: HIV-1 CNE40; assay type: cell-based; conditions: Table 7; CNE40, clade BC, R5
[6] = test system: HIV-1 CNE6; assay type: cell-based; conditions: Table 7; CNE6, clade B′, R5
[7] = test system: HIV-1 CNE5; assay type: cell-based; conditions: Table 7; CNE5, clade AE, R5
[8] = test system: HIV-1 CNE107; assay type: cell-based; conditions: Table 7; CNE107, clade AE, X4
[9] = test system: 41 HIV-1 isolates predominantly circulating in China; assay type: cell-based; conditions: for IC50 / IC90: Table 7, all viruses, >750 assigned 800, >250 assigned 300, >100 assigned 150, >28 assigned 30
[10] = test system: HIV-1 89.6; assay: Pseudotyped HIV-1 neutralization (HOS-CD4-CCR5 cells); assay type: cell-based; conditions: Table 3; 89.6, clade B, R5X4
Protocol: (§1) To determine the potency and breadth of HIV-1 neutralization by the D1 mutants, viruses pseudotyped with Envs from HIV-1 isolates representing clades A-E and using either CCR5 (R5) or CXCR4 (X4) or both (R5X4) as a coreceptor were included. Pseudoviruses were derived from 293T cells and a neutralization assay was performed in duplicate using HOS-CD4-CCR5 (for all R5 and dual tropic viruses) or HOS-CD4-CXCR4 cell lines as described in Chen et al., Proc. Natl. Acad. Sci. USA, 105: 17121-17126 (2008)). Luminescence was measured 48 hours post-infection and the percentage neutralization was calculated by the following formula: (1—average RLU of inhibitor-containing wells/average RLU or virus-only wells)×100.

[11] = test system: HIV-1 92UG037.8; assay: as above; assay type: cell-based; conditions: Table 3; 92UG037.8, clade A, R5
Protocol: as §1

[12] = test system: HIV-1 AD8; assay: as above; assay type: cell-based; conditions: Table 3; AD8, clade B, R5
Protocol: as §1

[13] = test system: HIV-1 Bal; assay: as above; assay type: cell-based; conditions: R5
Protocol: as §1

[14] = test system: HIV-1 CM243; assay: as above; assay type: cell-based; conditions: Table 3; CM243, clade E, R5
Protocol: as §1

[15] = test system: HIV-1 GXC; assay: as above; assay type: cell-based; conditions: Table 3, clade C, R5
Protocol: as §1

[16] = test system: HIV-1 GXE; assay: as above; assay type: cell-based; conditions: Table 3, clade E, R5
Protocol: as §1

[17] = test system: HIV-1 JRCSF; assay: as above; assay type: cell-based; conditions: Table 3, clade B, R5
Protocol: as §1

[18] = test system: HIV-1 JRFL; assay: as above; assay type: cell-based; conditions: R5
Protocol: as §1

[19] = test system: HIV-1 R2; assay: as above; assay type: cell-based; conditions: Table 3; R2, clade B, R5
Protocol: as §1

[20] = test system: HIV-1 Z2Z6; assay: as above; assay type: cell-based; conditions: Table 3; Z2Z6, clade D, R5
Protocol: as §1

[21] = test system: HIV-1 Env Bal; assay: HIV-1 Env-mediated cell-cell fusion; assay type: cell-based; conditions: R5
[22] = test system: HIV-1 KNH1144.EC1; assay: TZM-bl cell-based neutralization assay; conditions: Table 6; KNH1144.EC1, clade A, R5
[23] = test system: HIV-1 GS-015.EC12; assay: TZM-bl cell-based neutralization assay; conditions: Table 6; GS-015.EC12, clade C, R5
[24] = test system: HIV-1 PBL286.VRC36aPV; assay: TZM-bl cell-based neutralization assay; conditions: Table 6, clade C, R5
[25] = test system: HIV-1 57128.VRC18; assay: TZM-bl cell-based neutralization assay; conditions: Table 6; 57128.VRC18, clade D, R5
[26] = test system: HIV-1 isolates from clades A to D, AE, and AG; assay: TZM-bl cell-based neutralization assay, means over the panel (n=12); conditions: Table 6, all viruses, >167 nM assigned 200, >250 assigned 300
[27] = Dynamic light scattering (aggregation); assay type: physicochemical
Protocol: To test whether soluble aggregates of 4Dm2m and 6Dm2m formed during prolonged incubation, dynamic light scattering (DLS) was used. Proteins concentrated to 10 mg/ml in PBS were stored at […] and slowly thawed on ice before measurements.

[28] = read-out: IC50, arithmetic mean
[29] = read-out: IC90, arithmetic mean

enfuvirtide showed an IC50 [1] of 8600 pM, an IC90 [1] of 310000 pM and an IC50 [2] of 102000 pM. It also gave an IC90 [2] greater than 750000 pM, an IC50 [3] of 15000 pM and an IC90 [3] of 228000 pM. The IC50 [4] was 26000 pM, the IC90 [4] was 285000 pM and the IC50 [5] was 4900 pM. For the same substance, the IC90 [5] was 108000 pM, the IC50 [6] was 1400 pM and the IC90 [6] was 15000 pM. It also gave an IC50 [7] of 2100 pM, an IC90 [7] of 19000 pM and an IC50 [8] of 3800 pM. It also gave an IC90 [8] of 45000 pM, an IC50 [9, 28] of 37000 pM and an IC50 ([9]; read-out: IC50, geometric mean) of 11000 pM. For the same substance, the IC90 [9, 29] was 277000 pM and the IC90 ([9]; read-out: IC90, geometric mean) was 123000 pM.
“4Dm2m: bispecific multivalent fusion protein of mD1.22 and m36.4; two SEQ ID NO: 20 and two SEQ ID NO: 21 chains” gave an IC50 [10] of less than 21 pM, an IC90 [10] of less than 21 pM and an IC50 [11] of 51 ± 1 pM. It also gave an IC90 [11] of 450 ± 10 pM, an IC50 [12] of 130 ± 10 pM and an IC90 [12] of 740 ± 60 pM. It also gave an IC50 ([13]; Table 2, clade B) of 120 pM, an IC90 ([13]; Table 2, clade B) of 360 pM and an IC50 ([13]; Table 3, clade B) of 150 ± 40 pM. The IC90 ([13]; Table 3, clade B) was 500 ± 70 pM, the IC50 [14] was 290 ± 110 pM and the IC90 [14] was 1200 ± 600 pM. It also gave an IC50 [15] of 610 ± 360 pM, an IC90 [15] of 4000 pM and an IC50 [16] of 830 ± 110 pM. For the same substance, the IC90 [16] was 8200 ± 1300 pM, the IC50 [17] was 290 ± 180 pM and the IC90 [17] was 3000 ± 2900 pM. The IC50 ([18]; Table 2, clade B) was 60 pM, the IC90 ([18]; Table 2, clade B) was 290 pM and the IC50 ([18]; Table 3, clade B) was 140 ± 10 pM. For the same substance, the IC90 ([18]; Table 3, clade B) was 390 ± 40 pM, the IC50 [19] was 28 ± 11 pM and the IC90 [19] was 430 ± 180 pM. For the same substance, the IC50 [20] was 140 ± 40 pM, the IC90 [20] was 1100 ± 100 pM and the IC50 ([21]; Table 4, clade B) was 4100 pM. For the same substance, the IC50 ([21]; Table 5, clade B) was 4100 ± 100 pM, the IC50 [22] was 81 pM and the IC90 [22] was 1000 pM. It also gave an IC50 [23] of 22 pM, an IC50 [24] of 2000 pM and an IC50 [25] of 400 pM. For the same substance, the IC90 [25] was 2800 pM, the IC50 [26, 28] was 720 pM and the IC50 ([26]; read-out: IC50, geometric mean) was 280 pM. The IC90 ([26]; read-out: IC90, geometric mean) was 2400 pM, the IC50 [1] was 390 pM and the IC90 [1] was 10000 pM. For the same substance, the IC50 [2] was 110 pM, the IC90 [2] was 4000 pM and the IC50 [3] was 490 pM. The IC90 [3] was 4900 pM, the IC50 [4] was 70 pM and the IC90 [4] was 440 pM. It also gave an IC50 [5] of 10 pM, an IC90 [5] of 110 pM and an IC50 [6] of 330 pM. For the same substance, the IC90 [6] was 2300 pM, the IC50 [7] was 670 pM and the IC90 [7] was 8700 pM. The IC50 [8] was 520 pM, the “IC50 geometric mean lower than that of C34” value ([9]; 41 isolates, P<0.001) was roughly 16 fold and the “IC50 geometric mean lower than that of CD4-Ig” value ([9]; 41 isolates, P<0.001) was roughly 200 fold. For the same substance, the “IC50 geometric mean lower than that of T20” value ([9]; 41 isolates, P=0.002) was “about 50 fold”, the IC50 [9, 28] was 340 pM and the IC50 ([9]; read-out: IC50, geometric mean) was ~200 pM and 220 pM. For the same substance, the IC90 [9, 29] was 6200 pM, the IC90 ([9]; read-out: IC90, geometric mean) was 3500 pM and the aggregation propensity [27] was “low aggregation propensity”. For the same substance, the “aggregation during incubation (DLS)” value ([27]; 10 mg/ml in PBS, 4° C. and 37° C.) was “disappeared within the first day of incubation” and the “average diameter of particles (DLS)” value ([27]; 10 mg/ml in PBS, after freeze-thaw, predominantly small particles) was 16.3 nm.
